Literature values, collected in paper PMC11187563, “The importance of tyrosines in multimers of cyclic RGD nonapeptides: towards αvβ6-integrin targeted radiotherapeutics” (RSC Medicinal Chemistry, 2024).

System: αvβ6-integrin
Details: compared with its two siblings with one Phe replaced by a Tyr; cited from earlier work

cyclo[FRGDLAFp(NMe)K]
αvβ6-integrin affinity and subtype selectivity: slightly better αvβ6-integrin affinity and subtype selectivity
